{
  "source": "patent US20250082647A1",
  "about": "“SPECIFIC DOSAGE OF PHENOTHIAZINE COMPOUNDS FOR USE IN TREATMENT OR PREVENTION OF ALZHEIMER'S DEMENTIA” (IMMUNGENETICS AG, priority 2022, published 2025)",
  "test_system": "plasma Abeta1-40",
  "experiment": "Plasma Abeta1-40 in human subjects after oral thiethylperazine (INNO-BIA plasma Abeta forms immunoassay)",
  "format": "in vivo",
  "conditions": "for average increase in plasma Abeta1-40: day 1; for subjects with an increase of plasma Abeta1-40: oral",
  "description": "Samples of 10 ml venous blood were collected in standardized test tubes containing ethylene diamine tetraacetic acid (EDTA) and gently shaken 1-2 times. As soon as possible (within max. 30 min.) samples were centrifuged at 1600 g, room temperature for 10 min. Plasma was aliquoted into 6 portions of 0.5 ml. All aliquots were frozen into a deep freezer (-80° C.) within 10 min after the centrifugation and stored until use. Abeta measurements were performed using the bead-based INNO-BIA plasma Abeta forms immunoassay (Innogenetics/Fujirebio Europe, Gent, Belgium) according to the manufacturer's protocol. Plasma samples and all other kit reagents were prepared according to the manufacturer's protocol. In brief, plasma samples were thawed at room temperature, centrifuged at 4000 g for 10 min to remove any possible debris, vortexed and then diluted 3-fold using Plasma Diluent. After transferring into the filter plate diluted samples, controls and standards were washed and incubated shaking overnight at 4° C. after the addition of the first conjugate. On the next day, all wells were washed 3 times and incubated with detection conjugate for 1 h at room temperature. After another 3 times washing, reading solution was added to all wells and the measurements were performed on a Luminex IS 100 (Luminex Corporation, Austin, TX, USA) platform after 2 minutes of shaking. Luminex instrument settings used were: gate-7500 to 15000, sample volume-50 μL and counts per region-100 beads. Standard curve calculation was performed using Stata 14.2 (StataCorp, College Station, TX, USA) employing a four-parametric logistic fit (nl log4 command). All standards, controls, and the patients' samples were analyzed in duplicates; all samples from a given individual were assayed in one analytical run. The duplicate-averaged concentrations (in pg/ml) of the two biomarkers (Abeta1-40 and Abeta1-42) were calculated. In all eight standard-curves fitting models (4 runs×2 biomarkers), adjusted R-squared statistics were higher than 0.995, which speaks for excellent curve fitting quality. Herein below, thiethylperazine was used as thiethylperazine maleate, wherein the weight-based amounts [in mg] are indicated with respect to thiethylperazine; the weight-based amounts of thiethylperazine maleate [in mg] are indicated in parenthesis. […] On day 1 (t=0 h), blood samples were taken from all subjects. […] Plasma Abeta was considered an indicator of brain Abeta content and Abeta export with higher plasma Abeta concentrations indicating higher Abeta clearance from the brain (Ferrero, Williams et al. 2016, […], Chiao et al. 2016).",
  "data": [
    {"molecule": "CCSc1ccc2c(c1)N(CCCN1CCN(C)CC1)c1ccccc1S2", "note": "[thiethylperazine, 2-(ethylsulfanyl)-10-[3-(4-methylpiperazin-1-yl)propyl]-10H-phenothiazine]", "values": [
      {"measurement": "mean plasma Abeta1-40 concentration difference between responders and non-responders", "setting": "6.5 mg thiethylperazine", "result": 33.04, "unit": "pg/mL"},
      {"measurement": "average increase in plasma Abeta1-40", "setting": "6.5 mg thiethylperazine", "result": 7.8, "unit": "%"},
      {"measurement": "mean plasma Abeta1-40 concentration difference between responders and non-responders", "setting": "13 mg thiethylperazine", "result": 28.07, "unit": "pg/mL"},
      {"measurement": "average increase in plasma Abeta1-40", "setting": "13 mg thiethylperazine", "result": 7.8, "unit": "%"},
      {"measurement": "subjects with an increase of plasma Abeta1-40", "setting": "26 mg thiethylperazine (41.12 mg maleate) per day over three consecutive days, steady state, 15 subjects (comparative)", "result": 40, "unit": "%"},
      {"measurement": "average change of plasma Abeta1-40", "setting": "26 mg thiethylperazine per day over three consecutive days, steady state", "result": 6.5, "unit": "%"},
      {"measurement": "mean plasma Abeta1-40 concentration difference between responders and non-responders", "setting": "26 mg thiethylperazine, steady state", "result": 16.53, "unit": "pg/mL"},
      {"measurement": "subjects with an increase of plasma Abeta1-40", "setting": "after second administration on day 1, dose of 13 mg thiethylperazine (20.56 mg maleate), 15 subjects", "result": 87, "unit": "%"},
      {"measurement": "subjects with an increase of plasma Abeta1-40", "setting": "initial dose of 6.5 mg thiethylperazine (10.28 mg maleate), day 1, blood four hours after administration, 15 subjects", "result": 53, "unit": "%"},
      {"measurement": "average increase in plasma Abeta1-40 higher compared to higher dose", "setting": "lower dose 2-20 mg (6.5 mg and 13 mg) versus 26 mg", "result": "≥ 20", "unit": "%"}
    ]}
  ]
}
